Results: ChEMBL document CHEMBL1201862, “PubChem BioAssay data set” (2004)
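48-hour exposure; five concentrations; linearly interpolated endpoints. Abbreviation: GI50, concentration required for 50% inhibition of growth.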 Active and inactive are the calls of the source. No stated cut-off is given here; in the data, active = GI50 up to about 1.1 µM and inactive = higher.

Columns and labels:
Test in all cases: DTP human tumour cell line panel, 48 h
SK-MEL-28 = tested on: SK-MEL-28
HCC 2998 = tested on: HCC 2998
SF-295 = tested on: SF-295
CCRF-CEM = tested on: CCRF-CEM
MOLT-4 = tested on: MOLT-4
SNB-75 = tested on: SNB-75
UO-31 = tested on: UO-31
OVCAR-4 = tested on: OVCAR-4
HT-29 = tested on: HT-29
HCT-116 = tested on: HCT-116
NCI-H460 = tested on: NCI-H460
OVCAR-3 = tested on: OVCAR-3
UACC-257 = tested on: UACC-257
EKVX = tested on: EKVX
SR = tested on: SR
SNB-19 = tested on: SNB-19
SK-MEL-2 = tested on: SK-MEL-2
K562 = tested on: K562
SK-OV-3 = tested on: SK-OV-3
HCT-15 = tested on: HCT-15

SMILES | GI50 (SK-MEL-28) | GI50 (HCC 2998) | GI50 (SF-295) | GI50 (CCRF-CEM) | GI50 (MOLT-4) | GI50 (SNB-75) | GI50 (UO-31) | GI50 (OVCAR-4) | GI50 (HT-29) | GI50 (HCT-116) | GI50 (NCI-H460) | GI50 (OVCAR-3) | GI50 (UACC-257) | GI50 (EKVX) | GI50 (SR) | GI50 (SNB-19) | GI50 (SK-MEL-2) | GI50 (K562) | GI50 (SK-OV-3) | GI50 (HCT-15)
Cc1c(N)nc([C@H](CC(N)=O)NC[C@H](N)C(N)=O)nc1C(=O)N[C@H](C(=O)N[C@H](C)[C@@H](O)CC(=O)N[C@H](C(=O)NC(O[C@@H]1O[C@@H](C)[C@@H](N)[C@@H](O)[C@H]1O)C(O)c1nc(-c2nc(C(=O)NCCCCN)cs2)cs1)[C@@H](C)O)[C@@H](O[C@@H]1O[C@@H](CO)[C@@H](O)[C@H](O)[C@@H]1O[C@H]1O[C@H](CO)[C@@H](O)[C@H](OC(N)=O)[C@@H]1O)c1c[nH]cn1 (some centres not stated) | > 50 µM (inactive) | 0.134 µM (active) | 1.14 µM (inactive) | > 50 µM (inactive) | > 39.9 µM (inactive) | 6.73 µM (inactive) | 3.78 µM (inactive) | > 50 µM (inactive) | > 50 µM (inactive) | 3.86 µM (inactive) | 0.145 µM (active) | > 48.1 µM (inactive) | > 50 µM (inactive) | > 50 µM (inactive) | 0.0316 µM (active) | > 50 µM (inactive) | > 50 µM (inactive) | > 50 µM (inactive) | > 50 µM (inactive) | > 32.2 µM
O=[N+]([O-])/C(C(Cl)=C(Cl)Cl)=C1\Nc2ccccc2O1 | > 100 µM (inactive) | > 100 µM (inactive) | > 100 µM (inactive) | 19.5 µM (inactive) | 29.6 µM (inactive) | 15.7 µM (inactive) | 14.5 µM (inactive) | 33.8 µM (inactive) | > 100 µM (inactive) | 51.6 µM (inactive) | > 100 µM (inactive) | 23.4 µM (inactive) | > 100 µM (inactive) | > 100 µM (inactive) | 24.9 µM (inactive) | > 100 µM (inactive) | > 100 µM (inactive) | > 100 µM (inactive) | > 100 µM (inactive) | > 100 µM
CN(C)CCNC(=O)c1ccc(NCCCN(C)CCCNc2ccc3c(=O)n(CCN(C)C)c(=O)n4c5ccccc5c(=O)c2c34)c2c(O)c3ccccc3nc12 | 0.234 µM (active) | < 0.01 µM (active) | < 0.01 µM (active) | < 0.01 µM (active) | < 0.01 µM (active) | < 0.01 µM (active) | < 0.01 µM (active) | < 0.01 µM (active) | < 0.01 µM (active) | < 0.01 µM (active) | < 0.01 µM (active) | < 0.011 µM (active) | 0.162 µM (active) | 0.16 µM (active) | < 0.01 µM (active) | < 0.01 µM (active) | 0.0315 µM (active) | 0.0324 µM (active) | < 0.01 µM (active) | 0.0155 µM
CC(C)(C)c1nc2c(o1)/C(=N\c1ccccc1)c1ccccc1C2=O | 4.4 µM (inactive) | 18.6 µM (inactive) | 3.99 µM (inactive) | 5.61 µM (inactive) | 3.95 µM (inactive) | 5.61 µM (inactive) | 5.89 µM (inactive) | 2.74 µM (inactive) | 22.7 µM (inactive) | 3.23 µM (inactive) | 6.12 µM (inactive) | 1.33 µM (inactive) | 1.72 µM (inactive) | 13 µM (inactive) | 3.94 µM (inactive) | 8.17 µM (inactive) | 2.53 µM (inactive) | 3.55 µM (inactive) | 34.5 µM (inactive) | 4.25 µM
C[C@@H](O)C(=O)N1[C@@H]2CC3CC[C@]2(CS1(=O)=O)C3(C)C | 76.2 µM (inactive) | 49.1 µM (inactive) | > 100 µM (inactive) | 24.2 µM (inactive) | 31.1 µM (inactive) | > 100 µM (inactive) | > 100 µM (inactive) | 85.9 µM (inactive) | > 100 µM (inactive) | 67.8 µM (inactive) | 85.9 µM (inactive) | > 100 µM (inactive) | > 100 µM (inactive) | 89.7 µM (inactive) | 18 µM (inactive) | 65.8 µM (inactive) | > 100 µM (inactive) | 68.1 µM (inactive) | > 100 µM (inactive) | 56.6 µM
Nc1nc(Cl)cc(NCCCCO)n1 | > 100 µM (inactive) | > 100 µM (inactive) | > 100 µM (inactive) | > 100 µM (inactive) | > 100 µM (inactive) | 65.3 µM (inactive) | > 100 µM (inactive) | > 100 µM (inactive) | > 100 µM (inactive) | > 100 µM (inactive) | > 100 µM (inactive) | > 10 µM (inactive) | > 100 µM (inactive) | > 100 µM (inactive) | > 100 µM (inactive) | > 100 µM (inactive) | > 100 µM (inactive) | > 100 µM (inactive) | > 100 µM (inactive) | > 100 µM
O=S(O)CCCCCSSc1ccccc1 | 61.1 µM (inactive) | > 100 µM (inactive) | – | 4.5 µM (inactive) | 8.13 µM (inactive) | 37.3 µM (inactive) | 31.6 µM (inactive) | > 100 µM (inactive) | 84.9 µM (inactive) | 24.3 µM (inactive) | 68.9 µM (inactive) | 43.7 µM (inactive) | 39 µM (inactive) | > 100 µM (inactive) | 8.02 µM (inactive) | > 100 µM (inactive) | 18.2 µM (inactive) | 15.3 µM (inactive) | > 100 µM (inactive) | –
C=CC1=C(C)c2cc3[nH]c(c4c5nc(cc6[nH]c(cc1n2)c(C)c6CC)C(C)=C5C(=O)[C@@H]4C(=O)OC)[C@@H](CCC(=O)O)[C@@H]3C | 1.64 µM (inactive) | 2 µM (inactive) | 2.12 µM (inactive) | 1.21 µM (inactive) | 1 µM (active) | 2.11 µM (inactive) | 2.33 µM (inactive) | 2.54 µM (inactive) | 8.43 µM (inactive) | 8.71 µM (inactive) | 2.81 µM (inactive) | 2.04 µM (inactive) | 5.32 µM (inactive) | 10.2 µM (inactive) | 0.634 µM (active) | 4.09 µM (inactive) | 4.13 µM (inactive) | 1.38 µM (inactive) | 4.06 µM (inactive) | 2.49 µM
CON(C)c1nc(N)c(C#N)c(C#N)c1C#N | > 10 µM (inactive) | > 10 µM (inactive) | > 10 µM (inactive) | 4.02 µM (inactive) | > 10 µM (inactive) | > 10 µM (inactive) | > 10 µM (inactive) | > 10 µM (inactive) | > 10 µM (inactive) | > 10 µM (inactive) | > 10 µM (inactive) | 2.28 µM (inactive) | – | > 10 µM (inactive) | > 10 µM (inactive) | > 10 µM (inactive) | > 10 µM (inactive) | – | > 10 µM (inactive) | > 10 µM
O=C1C[C@H](c2ccccc2)C2(C(=O)c3ccccc3C2=O)[C@H](c2ccccc2)C1 | > 100 µM (inactive) | > 100 µM (inactive) | > 100 µM (inactive) | > 100 µM (inactive) | 61.2 µM (inactive) | 27 µM (inactive) | > 100 µM (inactive) | > 100 µM (inactive) | > 100 µM (inactive) | 46.5 µM (inactive) | > 100 µM (inactive) | > 100 µM (inactive) | – | – | > 100 µM (inactive) | > 100 µM (inactive) | 16.6 µM (inactive) | > 100 µM (inactive) | 19.5 µM (inactive) | > 100 µM
CN(C)CN(C)c1nc(N(C)C)nc(N(C)CN(C)C)n1 | 25.8 µM (inactive) | > 100 µM (inactive) | > 100 µM (inactive) | 25.7 µM (inactive) | 26.2 µM (inactive) | 60.3 µM (inactive) | > 100 µM (inactive) | 42.4 µM (inactive) | 57.8 µM (inactive) | 32 µM (inactive) | 57.3 µM (inactive) | > 100 µM (inactive) | 34.7 µM (inactive) | > 100 µM (inactive) | 24.4 µM (inactive) | > 100 µM (inactive) | 20.9 µM (inactive) | 30.8 µM (inactive) | > 100 µM (inactive) | 24.7 µM
CCOC(=O)c1sc2nc(SC)nc3c2c1N=CN3c1ccccc1Cl | > 100 µM (inactive) | > 100 µM (inactive) | 32.7 µM (inactive) | 65.3 µM (inactive) | 61.7 µM (inactive) | 14.4 µM (inactive) | > 100 µM (inactive) | 17.2 µM (inactive) | > 100 µM (inactive) | 40.9 µM (inactive) | > 100 µM (inactive) | 32.6 µM (inactive) | > 100 µM (inactive) | 55.3 µM (inactive) | 26.9 µM (inactive) | 29.4 µM (inactive) | 49.2 µM (inactive) | 72.3 µM (inactive) | 31.4 µM (inactive) | > 100 µM
Oc1[nH]c(Nc2cccc(CC(F)(F)F)c2)nc2ncnc1-2 | > 100 µM (inactive) | > 100 µM (inactive) | > 100 µM (inactive) | > 100 µM (inactive) | – | 95.5 µM (inactive) | > 100 µM (inactive) | > 100 µM (inactive) | > 100 µM (inactive) | > 100 µM (inactive) | > 100 µM (inactive) | > 100 µM (inactive) | > 100 µM (inactive) | > 100 µM (inactive) | > 100 µM (inactive) | > 100 µM (inactive) | > 100 µM (inactive) | – | > 100 µM (inactive) | > 100 µM
C[C@@H](NC(=O)[C@@H]1C[C@]1(C)COC(=O)c1cc([N+](=O)[O-])cc([N+](=O)[O-])c1)c1cccc2ccccc12 | > 100 µM (inactive) | > 100 µM (inactive) | 93.5 µM (inactive) | > 100 µM (inactive) | > 100 µM (inactive) | 37.1 µM (inactive) | > 100 µM (inactive) | > 100 µM (inactive) | 52.2 µM (inactive) | > 100 µM (inactive) | > 100 µM (inactive) | 24.3 µM (inactive) | > 100 µM (inactive) | > 100 µM (inactive) | > 100 µM (inactive) | > 100 µM (inactive) | > 100 µM (inactive) | > 100 µM (inactive) | > 100 µM (inactive) | > 100 µM
